The source of these data is US20230190741A1, “LONG-LASTING REABSORBABLE SUBCUTANEOUS IMPLANT WITH SUSTAINED RELEASE OF PRE-CONCENTRATED PHARMACOLOGICALLY ACTIVE SUBSTANCE IN POLYMER FOR THE TREATMENT OF ERECTILE DYSFUNCTION AND BENIGN PROSTATIC HYPERPLASIA” (priority 2020, published 2023).

The structures appear in SMILES notation.

One data set has as its system erectile dysfunction. The following applies: injection 10 mcg or 20 mcg applied directly to the penis, cited from earlier work.
Data set [1] can be described thus: half-life of the oral drug. The following applies: tadalafil vs sildenafil. Format: in vivo.
The conditions of data set [2]: oral administration; cited from earlier work.

`CCCCC[C@H](O)/C=C/[C@H]1[C@H](O)CC(=O)[C@@H]1CCCCCCC(=O)O` [alprostadil]: the duration of effect with erectile dysfunction (depending on the patient) is at most 2 h. In the data set with erectile dysfunction, the “time until effect after application” value is 20 min.
As for `CN1CC(=O)N2[C@H](c3ccc4c(c3)OCO4)c3[nH]c4ccccc4c3C[C@@H]2C1=O` [tadalafil], the “half-life relative to half-life of sildenafil” value in data set [1] was determined as 4.38 times. Also, the “loss of drug ingested (first-pass metabolism plus absorptive process)” value in data set [2] is at most 50%.
